Assay results published in PMC7252619 (PLoS ONE, 2020).
Where two headings read alike, the source gives them in different places. One block for each molecule: values may come before it.

Columns and labels:
MLK4 = molecular target: T1, MLK4 (Homo sapiens, UniProt Q5TCX8); type: biochemical; conditions: for % Enzyme Activity (relative to DMSO controls), Data 1: replicate Data 1; for % Enzyme Activity (relative to DMSO controls), Data 2: replicate Data 2
T1 construct: purchased ReactionBiology

human CD19+ B cells = assay: B-cell assay: IgG production of ODN2006-stimulated primary B cells (AlphaLISA); type: cell-based
[1] = test system: human PBMCs (responder cells) with RPMI1788 stimulator cells; assay: Mixed Lymphocyte Reaction (MLR, T cell assay), 3H-thymidine incorporation; type: cell-based; conditions: for Selectivity Index (SI) MLR/B-cell: ratio of IC50 values
RPMI1788 cells = assay: WST-1 cytotoxicity assay on RPMI1788 cells (B-cell line); type: cell-based, human; conditions: 48 h; mean of 4 independent measures; read-out: Cytotoxicity, WST-1 RPMI 1788 IC 50 (µM) Mean
Experimental: (§1) Compounds were prepared as 10 mM stock solutions in dimethylsulfoxide (DMSO)and were tested at 50-10-1-0.1-0.01 and 0.001 μM in the 4 assays.
(§2) The human B cell line RPMI1788 (American Type Culture Collection, USA) and the human T cell line Jurkat (European Collection of Cell Cultures, ECACC, England) were maintained in RPMI1640 culture medium (BioWhittaker®, Lonza, Verviers, Belgium) containing 10% foetal calf serum (FCS, HyClone® Thermo Scientific, United Kingdom) and 5 μg/mL gentamicin sulphate (BioWhittaker®, Lonza, Verviers, Belgium) at 37°C and 5% CO2.
(§3) WST-1 assays on RPMI-1788 cells and Jurkat cells were performed as follows: 20 μL of test compound dilution were added to each well containing exponential growing cells and the plates were incubated for 48 h at 37°C, 5% CO2. Untreated cells and positive control (1% triton X-100, for the last 15 min) served as reference for maximum and minimum viability. At the end of incubation 100 μL of supernatant were removed and replaced by 10 μL of WST-1 solution (Cell Proliferation Reagent WST-1, Roche Applied Science).

Jurkat cells = assay: WST-1 cytotoxicity assay on Jurkat cells (T-cell line); type: cell-based, human; conditions: 48 h; mean of 4 independent measures; read-out: Cytotoxicity, WST-1 Jurkat IC 50 (µM) Mean
Experimental: as §1, §2, §3

[2] = WST-1 cytotoxicity assay on RPMI1788 cells (B-cell line); type: cell-based, human; conditions: human, RPMI1788 cells (B-cell line), mean of 4 independent measures, read-out: Cytotoxicity, WST-1 RPMI 1788 IC 50 (µM) Mean
Experimental: as §1, §2, §3

VEGFR2 [3] = molecular target: T2, VEGFR2 (Homo sapiens, UniProt P35968); assay: KINOMEscan competition binding assay, dose response
VEGFR2 [4] = molecular target: T2, VEGFR2; assay: Kinase activity test (ReactionBiology), % enzyme activity relative to DMSO; type: biochemical; parameters: purchased ReactionBiology; conditions: VEGFR2;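 for % Enzyme activity at 10μM: VEGFR2 was one member of a ten-kinase screening panel testing marketed FDA-approved drugs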;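 for % Enzyme activity at 1μM: VEGFR2 was one member of a ten-kinase screening panel testing marketed FDA-approved drugs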
[5] = WST-1 cytotoxicity assay on Jurkat cells (T-cell line); type: cell-based, human; conditions: human, Jurkat cells (T-cell line), mean of 4 independent measures, read-out: Cytotoxicity, WST-1 Jurkat IC 50 (µM) Mean
Experimental: as §1, §2, §3

EPHB4 = molecular target: T3, EPHB4 (Homo sapiens, UniProt P54760); assay: Kinase activity test (ReactionBiology), % enzyme activity relative to DMSO; type: biochemical; conditions: EPHB4;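 note: EPHB4 was one of ten selected kinases in the screening panel, with enzyme activity expressed as a percentage of DMSO controls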
T3 construct: purchased ReactionBiology
T3 sequence (P54760 16-987): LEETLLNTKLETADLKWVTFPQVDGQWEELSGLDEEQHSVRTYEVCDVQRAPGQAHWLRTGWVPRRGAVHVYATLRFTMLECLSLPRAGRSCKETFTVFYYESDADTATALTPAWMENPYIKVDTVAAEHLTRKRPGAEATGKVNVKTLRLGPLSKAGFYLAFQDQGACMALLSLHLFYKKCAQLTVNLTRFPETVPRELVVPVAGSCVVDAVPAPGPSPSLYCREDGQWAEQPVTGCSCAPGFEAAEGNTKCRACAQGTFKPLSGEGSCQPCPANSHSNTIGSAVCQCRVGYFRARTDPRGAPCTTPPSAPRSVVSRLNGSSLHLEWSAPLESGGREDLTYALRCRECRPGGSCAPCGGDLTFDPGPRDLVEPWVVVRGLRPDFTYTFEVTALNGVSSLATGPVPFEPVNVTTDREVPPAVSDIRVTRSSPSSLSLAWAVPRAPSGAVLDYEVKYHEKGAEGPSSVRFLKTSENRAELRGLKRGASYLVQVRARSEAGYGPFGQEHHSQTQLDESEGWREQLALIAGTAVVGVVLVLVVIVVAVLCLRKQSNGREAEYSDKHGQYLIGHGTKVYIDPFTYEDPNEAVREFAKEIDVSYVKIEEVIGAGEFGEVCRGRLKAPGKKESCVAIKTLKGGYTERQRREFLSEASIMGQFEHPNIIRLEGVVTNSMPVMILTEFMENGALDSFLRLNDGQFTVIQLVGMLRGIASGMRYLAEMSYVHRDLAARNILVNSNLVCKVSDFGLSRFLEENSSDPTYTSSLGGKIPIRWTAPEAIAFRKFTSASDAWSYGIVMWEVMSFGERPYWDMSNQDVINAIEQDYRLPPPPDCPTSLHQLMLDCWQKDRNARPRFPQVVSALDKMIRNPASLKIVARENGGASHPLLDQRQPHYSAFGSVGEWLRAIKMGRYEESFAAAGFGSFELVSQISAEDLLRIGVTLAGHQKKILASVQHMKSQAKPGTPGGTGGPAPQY

MAP2K2 = molecular target: T4, MAP2K2 (Homo sapiens, UniProt P36507); assay: as above; type: biochemical
T4 construct: purchased ReactionBiology

NEK2 = molecular target: T5, NEK2 (Homo sapiens, UniProt P51955); assay: as above; type: biochemical;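 note: FDA-approved drugs chosen by structure-based repositioning, each screened at 10 or 1 µM for kinase activity, expressed as percent of DMSO controls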
T5 construct: purchased ReactionBiology
T5 sequence (P51955 1-445): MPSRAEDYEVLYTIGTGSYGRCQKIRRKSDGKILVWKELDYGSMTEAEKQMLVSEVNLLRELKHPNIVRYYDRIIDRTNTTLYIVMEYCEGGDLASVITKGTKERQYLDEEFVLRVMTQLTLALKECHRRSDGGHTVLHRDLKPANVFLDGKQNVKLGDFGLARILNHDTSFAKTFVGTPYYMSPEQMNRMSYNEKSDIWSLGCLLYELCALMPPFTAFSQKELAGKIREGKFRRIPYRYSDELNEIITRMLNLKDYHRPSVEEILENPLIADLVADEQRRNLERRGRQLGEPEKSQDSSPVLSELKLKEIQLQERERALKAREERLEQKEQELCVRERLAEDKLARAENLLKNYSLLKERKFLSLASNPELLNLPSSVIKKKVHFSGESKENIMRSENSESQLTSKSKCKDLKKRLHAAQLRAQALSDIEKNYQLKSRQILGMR

CDC7 = molecular target: T6, CDC7 (Homo sapiens, UniProt O00311); assay: as above; type: biochemical;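 note: each drug screened at both 10 µM and 1 µM across a ten-kinase panel, activity expressed as percent of DMSO control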
T6 construct: purchased ReactionBiology

CK1d = molecular target: T7, CK1d (Homo sapiens, UniProt P48730); assay: as above; type: biochemical; conditions: CK1d
T7 construct: purchased ReactionBiology

[6] = Homo sapiens, B-cell, 168 h, IgG production, ODN2006 0.1 μM, 7 days, mean of 4 independent experiments, read-out: B-cell IC50
[7] = 1 uM, Average, read-out: % Enzyme Activity (relative to DMSO controls), Average
[8] = 1 uM, replicate Data 1, read-out: % Enzyme Activity (relative to DMSO controls), Data 1
[9] = 1 uM, replicate Data 2, read-out: % Enzyme Activity (relative to DMSO controls), Data 2
[10] = 10 uM, Average, read-out: % Enzyme Activity (relative to DMSO controls), Average
[11] = 10 uM, replicate Data 1, read-out: % Enzyme Activity (relative to DMSO controls), Data 1
[12] = 10 uM, replicate Data 2, read-out: % Enzyme Activity (relative to DMSO controls), Data 2
[13] = Average, read-out: % Enzyme Activity (relative to DMSO controls), Average
[14] = replicate Data 1, read-out: % Enzyme Activity (relative to DMSO controls), Data 1
[15] = replicate Data 2, read-out: % Enzyme Activity (relative to DMSO controls), Data 2
[16] = read-out: % Enzyme Activity (relative to DMSO controls), Average
[17] = read-out: % Enzyme Activity (relative to DMSO controls), Data 1
[18] = read-out: % Enzyme Activity (relative to DMSO controls), Data 2
[19] = read-out: % Enzyme activity at 1μM
[20] = read-out: % Enzyme activity at 10μM

T6 sequence (O00311 whole entry): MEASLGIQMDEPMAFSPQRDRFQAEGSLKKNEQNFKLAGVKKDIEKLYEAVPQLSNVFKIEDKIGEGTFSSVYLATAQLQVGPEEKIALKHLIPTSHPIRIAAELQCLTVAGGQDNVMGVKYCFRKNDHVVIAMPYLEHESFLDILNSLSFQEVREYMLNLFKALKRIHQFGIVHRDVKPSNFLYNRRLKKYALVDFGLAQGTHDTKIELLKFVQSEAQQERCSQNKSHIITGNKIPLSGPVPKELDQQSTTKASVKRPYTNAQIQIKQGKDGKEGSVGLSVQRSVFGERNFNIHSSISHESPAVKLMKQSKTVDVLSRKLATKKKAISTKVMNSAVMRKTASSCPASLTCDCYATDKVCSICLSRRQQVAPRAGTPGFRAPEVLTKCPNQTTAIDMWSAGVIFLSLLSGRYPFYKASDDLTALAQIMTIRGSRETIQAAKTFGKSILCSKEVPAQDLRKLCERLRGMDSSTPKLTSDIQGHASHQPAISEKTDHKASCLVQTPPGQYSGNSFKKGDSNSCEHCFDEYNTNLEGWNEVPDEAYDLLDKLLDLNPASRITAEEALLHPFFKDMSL
T6 sequence (Q9UBU7 whole entry partner): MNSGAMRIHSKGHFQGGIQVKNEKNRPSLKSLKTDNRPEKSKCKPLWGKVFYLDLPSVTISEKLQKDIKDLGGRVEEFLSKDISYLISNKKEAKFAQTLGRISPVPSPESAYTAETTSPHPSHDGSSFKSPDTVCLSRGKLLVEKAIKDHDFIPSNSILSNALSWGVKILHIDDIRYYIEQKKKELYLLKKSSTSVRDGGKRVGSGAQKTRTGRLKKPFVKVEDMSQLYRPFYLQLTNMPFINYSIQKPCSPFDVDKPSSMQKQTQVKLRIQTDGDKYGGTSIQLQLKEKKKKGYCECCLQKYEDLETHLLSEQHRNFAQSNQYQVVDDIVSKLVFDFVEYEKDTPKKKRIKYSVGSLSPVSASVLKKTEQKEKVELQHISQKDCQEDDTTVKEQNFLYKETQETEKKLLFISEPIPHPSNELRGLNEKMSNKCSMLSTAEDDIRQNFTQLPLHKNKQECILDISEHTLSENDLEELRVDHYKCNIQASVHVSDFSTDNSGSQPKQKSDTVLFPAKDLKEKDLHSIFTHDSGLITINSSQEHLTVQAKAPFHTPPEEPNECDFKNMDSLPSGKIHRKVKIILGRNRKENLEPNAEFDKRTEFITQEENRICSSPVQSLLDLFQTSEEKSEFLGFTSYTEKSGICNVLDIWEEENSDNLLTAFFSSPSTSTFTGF
T7 sequence (P48730 whole entry): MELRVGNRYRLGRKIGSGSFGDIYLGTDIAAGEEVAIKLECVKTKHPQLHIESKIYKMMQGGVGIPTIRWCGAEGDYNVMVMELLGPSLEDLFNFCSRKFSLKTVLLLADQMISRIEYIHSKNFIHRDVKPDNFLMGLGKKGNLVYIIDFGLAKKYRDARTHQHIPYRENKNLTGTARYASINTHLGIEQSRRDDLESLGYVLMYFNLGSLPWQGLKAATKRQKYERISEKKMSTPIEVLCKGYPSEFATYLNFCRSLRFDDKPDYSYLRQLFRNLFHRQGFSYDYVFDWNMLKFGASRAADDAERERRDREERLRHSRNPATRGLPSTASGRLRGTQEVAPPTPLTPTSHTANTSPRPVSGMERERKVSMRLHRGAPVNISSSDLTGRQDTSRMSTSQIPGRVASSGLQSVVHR
T4 sequence (P36507 whole entry): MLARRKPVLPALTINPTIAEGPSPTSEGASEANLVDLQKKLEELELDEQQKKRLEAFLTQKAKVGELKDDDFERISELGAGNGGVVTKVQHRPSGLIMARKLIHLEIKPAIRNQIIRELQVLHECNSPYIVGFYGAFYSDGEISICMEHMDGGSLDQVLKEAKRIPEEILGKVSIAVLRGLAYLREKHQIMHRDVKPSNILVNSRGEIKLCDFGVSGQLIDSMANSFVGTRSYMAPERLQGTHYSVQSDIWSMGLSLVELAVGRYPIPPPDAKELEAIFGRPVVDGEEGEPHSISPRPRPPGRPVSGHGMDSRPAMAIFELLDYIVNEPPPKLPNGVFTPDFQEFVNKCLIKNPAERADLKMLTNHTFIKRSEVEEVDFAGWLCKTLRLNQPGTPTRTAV
T1 sequence (Q5TCX8 whole entry): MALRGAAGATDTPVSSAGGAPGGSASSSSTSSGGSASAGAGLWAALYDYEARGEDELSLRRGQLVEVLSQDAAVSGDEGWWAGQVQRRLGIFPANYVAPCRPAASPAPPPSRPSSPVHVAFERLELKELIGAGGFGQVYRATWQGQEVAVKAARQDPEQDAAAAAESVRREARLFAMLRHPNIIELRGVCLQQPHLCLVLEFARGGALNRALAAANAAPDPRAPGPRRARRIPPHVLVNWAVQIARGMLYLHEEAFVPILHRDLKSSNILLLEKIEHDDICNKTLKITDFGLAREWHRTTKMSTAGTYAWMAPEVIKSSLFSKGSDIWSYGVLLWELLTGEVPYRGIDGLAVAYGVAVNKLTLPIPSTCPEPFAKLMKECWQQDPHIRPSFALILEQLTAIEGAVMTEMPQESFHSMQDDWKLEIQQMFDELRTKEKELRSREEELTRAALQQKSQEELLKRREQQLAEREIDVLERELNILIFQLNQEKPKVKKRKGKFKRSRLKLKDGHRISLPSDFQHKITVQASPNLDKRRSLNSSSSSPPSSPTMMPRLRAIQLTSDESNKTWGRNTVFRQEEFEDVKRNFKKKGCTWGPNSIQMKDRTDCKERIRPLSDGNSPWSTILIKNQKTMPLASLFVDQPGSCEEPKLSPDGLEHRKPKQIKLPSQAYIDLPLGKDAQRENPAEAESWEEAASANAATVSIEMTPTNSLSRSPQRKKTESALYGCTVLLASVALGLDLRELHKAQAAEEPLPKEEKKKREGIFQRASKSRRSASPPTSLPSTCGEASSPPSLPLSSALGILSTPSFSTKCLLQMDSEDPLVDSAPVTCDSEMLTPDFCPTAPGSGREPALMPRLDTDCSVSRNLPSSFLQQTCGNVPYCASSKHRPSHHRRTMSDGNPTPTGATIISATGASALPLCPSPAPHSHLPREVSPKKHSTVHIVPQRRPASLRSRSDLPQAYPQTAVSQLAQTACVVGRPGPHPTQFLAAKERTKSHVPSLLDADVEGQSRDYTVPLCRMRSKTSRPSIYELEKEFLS
T2 sequence (P35968 20-1356): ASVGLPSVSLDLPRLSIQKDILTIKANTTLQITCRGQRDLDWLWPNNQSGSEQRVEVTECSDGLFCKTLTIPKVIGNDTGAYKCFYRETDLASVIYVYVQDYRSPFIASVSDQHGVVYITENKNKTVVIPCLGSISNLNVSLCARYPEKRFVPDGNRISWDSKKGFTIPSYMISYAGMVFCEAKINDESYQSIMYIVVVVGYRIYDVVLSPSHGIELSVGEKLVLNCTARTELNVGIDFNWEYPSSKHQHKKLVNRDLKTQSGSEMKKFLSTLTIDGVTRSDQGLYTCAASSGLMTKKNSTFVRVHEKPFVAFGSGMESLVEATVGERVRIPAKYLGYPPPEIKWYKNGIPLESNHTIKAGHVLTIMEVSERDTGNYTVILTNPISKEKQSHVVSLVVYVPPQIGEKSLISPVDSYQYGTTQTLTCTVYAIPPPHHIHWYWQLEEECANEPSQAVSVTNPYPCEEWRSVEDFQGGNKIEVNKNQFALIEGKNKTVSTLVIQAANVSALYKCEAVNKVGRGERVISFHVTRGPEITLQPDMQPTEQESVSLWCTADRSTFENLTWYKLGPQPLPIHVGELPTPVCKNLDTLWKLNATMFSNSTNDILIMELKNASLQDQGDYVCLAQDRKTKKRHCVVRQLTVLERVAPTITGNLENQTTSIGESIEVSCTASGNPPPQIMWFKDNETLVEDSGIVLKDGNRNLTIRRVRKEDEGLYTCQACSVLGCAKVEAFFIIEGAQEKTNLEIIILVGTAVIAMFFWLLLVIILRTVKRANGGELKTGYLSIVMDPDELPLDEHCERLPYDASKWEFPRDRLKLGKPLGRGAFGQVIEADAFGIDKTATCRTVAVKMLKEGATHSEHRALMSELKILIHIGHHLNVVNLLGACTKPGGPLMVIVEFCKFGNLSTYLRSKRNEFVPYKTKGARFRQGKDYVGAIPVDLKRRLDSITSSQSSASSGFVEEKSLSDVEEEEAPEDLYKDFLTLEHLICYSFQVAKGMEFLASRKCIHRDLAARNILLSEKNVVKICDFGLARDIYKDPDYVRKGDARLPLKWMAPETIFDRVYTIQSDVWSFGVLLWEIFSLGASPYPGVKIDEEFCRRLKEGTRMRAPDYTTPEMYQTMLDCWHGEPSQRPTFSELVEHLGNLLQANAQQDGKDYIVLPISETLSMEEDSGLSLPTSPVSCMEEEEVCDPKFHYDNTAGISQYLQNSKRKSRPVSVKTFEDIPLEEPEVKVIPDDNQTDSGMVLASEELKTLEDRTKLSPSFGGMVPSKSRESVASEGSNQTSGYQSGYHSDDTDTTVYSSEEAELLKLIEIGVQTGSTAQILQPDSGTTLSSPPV

Compound: CC(=O)Nc1nnc(S(N)(=O)=O)s1 [Acetazolamide]
- % Enzyme Activity (relative to DMSO controls), Average (MLK4; 1 uM): 106.03%
- % Enzyme Activity (relative to DMSO controls), Data 1 (MLK4; 1 uM): 105.08%
- % Enzyme Activity (relative to DMSO controls), Data 2 (MLK4; 1 uM): 106.98%
- % Enzyme Activity (relative to DMSO controls), Average (MLK4; 10 uM): 98.49%
- % Enzyme Activity (relative to DMSO controls), Data 1 (MLK4; 10 uM): 99.01%
- % Enzyme Activity (relative to DMSO controls), Data 2 (MLK4; 10 uM): 97.97%

- IC50 (human CD19+ B cells; mean of 4 independent measures, read-out: B-cell efficacy, B cell IC 50 (µM) Mean): 0.723 µM
Compound: COc1c(C)c2c(c(O)c1C/C=C(\C)CCC(=O)OCCN1CCOCC1)C(=O)OC2 [Mycophenolate Mofetyl]
- IC50 ([1]; mean of 4 independent measures, read-out: T-cell efficacy, MLR IC 50 (µM) Mean): 0.121 µM
- IC50 (RPMI1788 cells): 0.487 µM
- IC50 (Jurkat cells): 0.552 µM

Compound: NCCC(O)(P(=O)(O)O)P(=O)(O)O [Pamidronate]
- % Enzyme Activity (relative to DMSO controls), Average (MLK4; 1 uM): 79.13%
- % Enzyme Activity (relative to DMSO controls), Data 1 (MLK4; 1 uM): 76.76%
- % Enzyme Activity (relative to DMSO controls), Data 2 (MLK4; 1 uM): 81.5%
- % Enzyme Activity (relative to DMSO controls), Average (MLK4; 10 uM): 78.77%
- % Enzyme Activity (relative to DMSO controls), Data 1 (MLK4; 10 uM): 82.48%
- % Enzyme Activity (relative to DMSO controls), Data 2 (MLK4; 10 uM): 75.06%

Compound: Cc1ccc(C(=O)Nc2ccc(S(=O)(=O)O)c3cc(S(=O)(=O)O)cc(S(=O)(=O)O)c23)cc1NC(=O)c1cccc(NC(=O)Nc2cccc(C(=O)Nc3cc(C(=O)Nc4ccc(S(=O)(=O)O)c5cc(S(=O)(=O)O)cc(S(=O)(=O)O)c45)ccc3C)c2)c1 [Suramin, reference compound]
- IC50 (human CD19+ B cells; [6]): 35.2 µM
- IC50 ([1]; Homo sapiens, RPMI-1788, mean of 4 independent measures, read-out: T-cell efficacy, MLR IC 50 (µM) Mean): 29.8 µM
- Selectivity Index (SI) MLR/B-cell [1]: 0.85
- IC50 at 48 h [2]: > 50 µM
- Kd (VEGFR2 [3]): 25 µM
- remaining activity at 1 µM (VEGFR2 [4]; [7]): 72.7%
- remaining activity at 1 µM (VEGFR2 [4]; [8]): 73.6%
- remaining activity at 1 µM (VEGFR2 [4]; [9]): 71.8%
- remaining activity at 10 µM (VEGFR2 [4]; [10]): 6.48%
- remaining activity at 10 µM (VEGFR2 [4]; [11]): 7.02%
- remaining activity at 10 µM (VEGFR2 [4]; [12]): 5.94%
- remaining activity at 1 µM (VEGFR2 [4]; compound 1μM, relative to DMSO controls, read-out: % Enzyme activity at 1μM): 72.7%
- remaining activity at 10 µM (VEGFR2 [4]; compound 10μM, relative to DMSO controls, read-out: % Enzyme activity at 10μM): 6.48%
- IC50 at 48 h [5]: > 50 µM

Compound: Oc1cc(Cl)ccc1Oc1ccc(Cl)cc1Cl [Triclosan, reference compound]
- remaining activity at 1 µM (EPHB4; [13]): 100%
- remaining activity at 1 µM (EPHB4; [14]): 101%
- remaining activity at 1 µM (EPHB4; [15]): 99.9%
- remaining activity at 10 µM (EPHB4; [13]): 97.4%
- remaining activity at 10 µM (EPHB4; [14]): 97.3%
- remaining activity at 10 µM (EPHB4; [15]): 97.4%
- remaining activity at 1 µM (MAP2K2; [16]): 97.6%
- remaining activity at 10 µM (MAP2K2; [16]): 96%
- remaining activity at 1 µM (MAP2K2; [17]): 95.3%
- remaining activity at 10 µM (MAP2K2; [17]): 95%
- remaining activity at 1 µM (MAP2K2; [18]): 99.8%
- remaining activity at 10 µM (MAP2K2; [18]): 97.1%
- IC50 (human CD19+ B cells; [6]): 20.9 µM
- IC50 ([1]; Homo sapiens, RPMI-1788, read-out: T-cell efficacy, MLR IC 50 (µM) Mean): 34.3 µM
- Selectivity Index (SI) MLR/B-cell [1]: 1.64
- remaining activity at 1 µM (NEK2; [16]): 99.2%
- remaining activity at 10 µM (NEK2; [16]): 64.6%
- remaining activity at 1 µM (NEK2; [17]): 98.5%
- remaining activity at 10 µM (NEK2; [17]): 68.9%
- remaining activity at 1 µM (NEK2; [18]): 99.8%
- remaining activity at 10 µM (NEK2; [18]): 60.4%
- remaining activity at 1 µM (NEK2; [19]): 99.2%
- remaining activity at 10 µM (NEK2; [20]): 64.6%
- IC50 at 48 h [2]: 27.7 µM
- remaining activity at 1 µM (CDC7; [16]): 70.5%
- remaining activity at 10 µM (CDC7; [16]): 65.4%
- remaining activity at 1 µM (CDC7; [17]): 68.2%
- remaining activity at 10 µM (CDC7; [17]): 71.2%
- remaining activity at 1 µM (CDC7; [18]): 72.7%
- remaining activity at 10 µM (CDC7; [18]): 59.7%
- remaining activity at 1 µM (CDC7; [19]): 70.5%
- remaining activity at 10 µM (CDC7; [20]): 65.4%
- remaining activity at 1 µM (CK1d; [13]): 96.6%
- remaining activity at 1 µM (CK1d; [14]): 94.8%
- remaining activity at 1 µM (CK1d; [15]): 98.3%
- remaining activity at 10 µM (CK1d; [13]): 96.9%
- remaining activity at 10 µM (CK1d; [14]): 97.8%
- remaining activity at 10 µM (CK1d; [15]): 96%
- remaining activity at 1 µM (VEGFR2 [4]; [7]): 111%
- remaining activity at 1 µM (VEGFR2 [4]; [8]): 108%
- remaining activity at 1 µM (VEGFR2 [4]; [9]): 114%
- remaining activity at 10 µM (VEGFR2 [4]; [10]): 101%
- remaining activity at 10 µM (VEGFR2 [4]; [11]): 103%
- remaining activity at 10 µM (VEGFR2 [4]; [12]): 99.9%
- IC50 at 48 h [5]: 26.2 µM
